In ChEMBL document CHEMBL1131739, “Synthesis of 25-aminosterols, new antifungal agents” (1999):
In brackets after ≈: the same amount, converted by molar mass.

System: Candida albicans
Assay: In vitro antifungal activity against candida albicans (IP 1180.79)
Format: functional

Row | MIC | Structure (SMILES)
1 | 60 µM (≈ 26.6 µg/mL) | C[C@H](CCCC(C)(C)N)C1CC[C@@]2(C)C3=C(CC[C@]12C)[C@@]1(C)CC[C@H](O)C(C)(C)C1CC3 (some centres not stated)
2 | 4 µM (≈ 1.61 µg/mL) | C[C@H](CCCC(C)(C)N)C1CCC2C3CC=C4C[C@@H](O)CC[C@]4(C)C3CC[C@@]21C (some centres not stated)
